# Measured values published in patent US5082980A (Case Western Reserve University, priority 1990, dated 1992).
# What was measured:
# [1] = Sterility and pyrogen status of the injectable product; settings: patient-ready product
# [2] = test system: cerebral blood flow; settings: areas of high flow rate; limitation of water extraction in the brain tissue; cited from earlier work
# [3] = Toxic doses / physiological effects of the non-radioactive impurities; settings: quantity present in product, Table I
compound,measurement,setting,value
CCCC[15OH] [^15 O labeled butanol],sterility and pyrogen status,[1],sterile and pyrogen-free
[15OH2] [^15 O labeled water],"cerebral blood flow measurement, deviation",[2],underestimation of cerebral blood flow in areas of high flow rate
OB(O)O [boric acid],quantity in the product relative to quantities with observed physiological effects,[3],well below any quantity which has been observed to have any physiological effects
